Results as given in article PMC9619225, “Novel transketolase inhibitor oroxylin A suppresses the non‐oxidative pentose phosphate pathway and hepatocellular carcinoma tumour growth in mice and patient‐derived organoids” (Clinical and Translational Medicine, 2022).

Legend:
Format in all cases: binding
p53 = target: T1, p53 (Homo sapiens, UniProt P04637); experiment: SPR
T1 construct: gene TP53

Transketolase (TKT) [1] = target: T2, Transketolase (TKT) (Homo sapiens, UniProt P29401); experiment: SPR (Biacore, TKT immobilised on HisCap chip); supported by DARTS, CETSA, TKT-column displacement and enzyme inhibition ([…] at […]); parameters: Purified human TKT protein
T2 sequence (P29401 1-623): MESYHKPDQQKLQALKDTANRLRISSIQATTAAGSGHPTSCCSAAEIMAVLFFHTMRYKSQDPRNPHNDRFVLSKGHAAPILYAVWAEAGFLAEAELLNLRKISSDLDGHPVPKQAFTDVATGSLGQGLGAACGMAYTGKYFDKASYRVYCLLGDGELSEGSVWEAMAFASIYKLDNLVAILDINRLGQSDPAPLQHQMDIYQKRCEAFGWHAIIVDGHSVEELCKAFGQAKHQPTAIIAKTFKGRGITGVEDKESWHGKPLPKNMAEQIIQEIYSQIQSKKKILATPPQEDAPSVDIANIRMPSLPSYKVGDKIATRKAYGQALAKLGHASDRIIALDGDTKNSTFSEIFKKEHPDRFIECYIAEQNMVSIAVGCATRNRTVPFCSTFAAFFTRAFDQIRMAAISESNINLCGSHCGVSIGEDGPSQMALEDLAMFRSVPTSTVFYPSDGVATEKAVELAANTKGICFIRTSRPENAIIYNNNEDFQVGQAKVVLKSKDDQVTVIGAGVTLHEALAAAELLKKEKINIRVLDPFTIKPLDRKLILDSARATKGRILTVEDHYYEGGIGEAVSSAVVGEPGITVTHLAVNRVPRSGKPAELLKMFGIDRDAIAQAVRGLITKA

Transketolase (TKT) [2] = target: T2, Transketolase (TKT); experiment: competitive displacement chromatography on TKT protein column; parameters: TKT protein immobilised on silica column

T1 sequence (P04637 whole entry): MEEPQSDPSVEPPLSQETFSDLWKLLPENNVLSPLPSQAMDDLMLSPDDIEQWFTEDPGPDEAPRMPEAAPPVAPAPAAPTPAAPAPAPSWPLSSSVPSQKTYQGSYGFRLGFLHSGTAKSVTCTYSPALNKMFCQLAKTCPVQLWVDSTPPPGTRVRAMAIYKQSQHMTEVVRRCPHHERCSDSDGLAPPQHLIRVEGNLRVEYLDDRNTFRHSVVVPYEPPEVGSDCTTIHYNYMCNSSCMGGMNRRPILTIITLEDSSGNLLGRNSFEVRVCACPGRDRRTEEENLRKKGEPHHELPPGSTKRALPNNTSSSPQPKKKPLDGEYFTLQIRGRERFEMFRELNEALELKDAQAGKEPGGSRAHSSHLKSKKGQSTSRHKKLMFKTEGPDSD

Kd (p53) [µM]	Kd (Transketolase (TKT) [1]) [µM]	Structure (SMILES)	competitive displacement chromatography on TKT protein column (Transketolase (TKT) [2])
70.7	11.9 ± 8.4	COc1c(O)cc2oc(-c3ccccc3)cc(=O)c2c1O [oroxylin A]	–
–	–	Cc1ncc(C[n+]2csc(CCO)c2C)c(O)n1 [oxythiamine]	retention time of oxythiamine was markedly decreased with the increased concentration of oroxylin A in mobile phase
